In brackets after ≈: the same amount, converted by molar mass.
Key:
[1] = target: T1, Leucine-rich repeat serine/threonine-protein kinase 2 (Homo sapiens, UniProt Q5S007); experiment: Inhibition of LRRK2 (unknown origin) by HTRF assay
Liver = experiment: Intrinsic clearance in human liver microsomes; type: ADME, microsome
[2] = Half life in Swiss albino mouse at 1 mg/kg, iv or 10 mg/kg, po; type: ADME, organism-based; conditions: in vivo
Mus musculus [3] = experiment: Volume of distribution at steady state in Swiss albino mouse at 1 mg/kg, iv or 10 mg/kg, po; type: ADME, organism-based; conditions: in vivo
Mus musculus [4] = experiment: Dose normalized AUC in Swiss albino mouse at 1 mg/kg, iv; type: ADME, organism-based; conditions: in vivo
[5] = Passive permeability in MDCK cells expressing human MDR1; type: ADME, cell-based, Canis lupus familiaris; conditions: dog, read-out: permeability
[6] = Protein binding in mouse brain; type: ADME, tissue-based; conditions: read-out: PB (converted)
[7] = Half life in Swiss albino mouse at 1 mg/kg, iv or 2 mg/kg, po; type: ADME, organism-based; conditions: in vivo
[8] = Blood clearance in Swiss albino mouse at 1 mg/kg, iv or 2 mg/kg, po; type: ADME, organism-based; conditions: whole blood
[9] = Volume of distribution at steady state in Swiss albino mouse at 1 mg/kg, iv or 2 mg/kg, po; type: ADME, organism-based; conditions: in vivo, read-out: Vdss
[10] = Oral bioavailability in Swiss albino mouse at 2 mg/kg; type: ADME, organism-based; conditions: in vivo
[11] = Ratio of drug level in Swiss albino mouse brain to blood at 1 mg/kg, iv or 2 mg/kg, po; type: ADME, organism-based
[12] = Solubility of the compound; type: physicochemical
[13] = target: T1, Leucine-rich repeat serine/threonine-protein kinase 2; experiment: Inhibition of human LRRK2 using RLGRDKYKTLRQIRQ as substrate at 1uM in presence of [gamma-33P]-ATP
SRSF protein kinase 3 [14] = target: T2, SRSF protein kinase 3 (Homo sapiens, UniProt Q9UPE1); experiment: Inhibition of human MSSK1 using GRSRSRSRSR as substrate at 1uM in presence of [gamma-33P]-ATP
T2 sequence (Q9UPE1 whole entry): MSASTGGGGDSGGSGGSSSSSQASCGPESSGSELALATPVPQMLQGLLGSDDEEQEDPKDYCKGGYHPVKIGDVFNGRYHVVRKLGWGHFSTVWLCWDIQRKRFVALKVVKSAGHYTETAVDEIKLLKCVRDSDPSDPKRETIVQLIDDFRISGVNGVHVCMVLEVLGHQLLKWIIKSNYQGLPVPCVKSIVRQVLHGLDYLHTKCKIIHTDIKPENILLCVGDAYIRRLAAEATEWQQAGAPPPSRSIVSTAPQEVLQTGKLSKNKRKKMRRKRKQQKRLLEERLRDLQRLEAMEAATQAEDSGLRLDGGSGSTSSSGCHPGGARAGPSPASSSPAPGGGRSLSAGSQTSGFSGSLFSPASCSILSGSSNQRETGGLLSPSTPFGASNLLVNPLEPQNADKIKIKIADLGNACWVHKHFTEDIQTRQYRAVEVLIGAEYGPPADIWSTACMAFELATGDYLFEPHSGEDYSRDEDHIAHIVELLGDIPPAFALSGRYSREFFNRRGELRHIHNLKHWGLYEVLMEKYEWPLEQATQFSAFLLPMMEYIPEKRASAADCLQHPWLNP

SRSF protein kinase 3 [15] = target: T2, SRSF protein kinase 3; experiment: Inhibition of human MSSK1 GRSRSRSRSR as substrate in presence of [gamma-33P]-ATP

T1 sequence (Q5S007 whole entry): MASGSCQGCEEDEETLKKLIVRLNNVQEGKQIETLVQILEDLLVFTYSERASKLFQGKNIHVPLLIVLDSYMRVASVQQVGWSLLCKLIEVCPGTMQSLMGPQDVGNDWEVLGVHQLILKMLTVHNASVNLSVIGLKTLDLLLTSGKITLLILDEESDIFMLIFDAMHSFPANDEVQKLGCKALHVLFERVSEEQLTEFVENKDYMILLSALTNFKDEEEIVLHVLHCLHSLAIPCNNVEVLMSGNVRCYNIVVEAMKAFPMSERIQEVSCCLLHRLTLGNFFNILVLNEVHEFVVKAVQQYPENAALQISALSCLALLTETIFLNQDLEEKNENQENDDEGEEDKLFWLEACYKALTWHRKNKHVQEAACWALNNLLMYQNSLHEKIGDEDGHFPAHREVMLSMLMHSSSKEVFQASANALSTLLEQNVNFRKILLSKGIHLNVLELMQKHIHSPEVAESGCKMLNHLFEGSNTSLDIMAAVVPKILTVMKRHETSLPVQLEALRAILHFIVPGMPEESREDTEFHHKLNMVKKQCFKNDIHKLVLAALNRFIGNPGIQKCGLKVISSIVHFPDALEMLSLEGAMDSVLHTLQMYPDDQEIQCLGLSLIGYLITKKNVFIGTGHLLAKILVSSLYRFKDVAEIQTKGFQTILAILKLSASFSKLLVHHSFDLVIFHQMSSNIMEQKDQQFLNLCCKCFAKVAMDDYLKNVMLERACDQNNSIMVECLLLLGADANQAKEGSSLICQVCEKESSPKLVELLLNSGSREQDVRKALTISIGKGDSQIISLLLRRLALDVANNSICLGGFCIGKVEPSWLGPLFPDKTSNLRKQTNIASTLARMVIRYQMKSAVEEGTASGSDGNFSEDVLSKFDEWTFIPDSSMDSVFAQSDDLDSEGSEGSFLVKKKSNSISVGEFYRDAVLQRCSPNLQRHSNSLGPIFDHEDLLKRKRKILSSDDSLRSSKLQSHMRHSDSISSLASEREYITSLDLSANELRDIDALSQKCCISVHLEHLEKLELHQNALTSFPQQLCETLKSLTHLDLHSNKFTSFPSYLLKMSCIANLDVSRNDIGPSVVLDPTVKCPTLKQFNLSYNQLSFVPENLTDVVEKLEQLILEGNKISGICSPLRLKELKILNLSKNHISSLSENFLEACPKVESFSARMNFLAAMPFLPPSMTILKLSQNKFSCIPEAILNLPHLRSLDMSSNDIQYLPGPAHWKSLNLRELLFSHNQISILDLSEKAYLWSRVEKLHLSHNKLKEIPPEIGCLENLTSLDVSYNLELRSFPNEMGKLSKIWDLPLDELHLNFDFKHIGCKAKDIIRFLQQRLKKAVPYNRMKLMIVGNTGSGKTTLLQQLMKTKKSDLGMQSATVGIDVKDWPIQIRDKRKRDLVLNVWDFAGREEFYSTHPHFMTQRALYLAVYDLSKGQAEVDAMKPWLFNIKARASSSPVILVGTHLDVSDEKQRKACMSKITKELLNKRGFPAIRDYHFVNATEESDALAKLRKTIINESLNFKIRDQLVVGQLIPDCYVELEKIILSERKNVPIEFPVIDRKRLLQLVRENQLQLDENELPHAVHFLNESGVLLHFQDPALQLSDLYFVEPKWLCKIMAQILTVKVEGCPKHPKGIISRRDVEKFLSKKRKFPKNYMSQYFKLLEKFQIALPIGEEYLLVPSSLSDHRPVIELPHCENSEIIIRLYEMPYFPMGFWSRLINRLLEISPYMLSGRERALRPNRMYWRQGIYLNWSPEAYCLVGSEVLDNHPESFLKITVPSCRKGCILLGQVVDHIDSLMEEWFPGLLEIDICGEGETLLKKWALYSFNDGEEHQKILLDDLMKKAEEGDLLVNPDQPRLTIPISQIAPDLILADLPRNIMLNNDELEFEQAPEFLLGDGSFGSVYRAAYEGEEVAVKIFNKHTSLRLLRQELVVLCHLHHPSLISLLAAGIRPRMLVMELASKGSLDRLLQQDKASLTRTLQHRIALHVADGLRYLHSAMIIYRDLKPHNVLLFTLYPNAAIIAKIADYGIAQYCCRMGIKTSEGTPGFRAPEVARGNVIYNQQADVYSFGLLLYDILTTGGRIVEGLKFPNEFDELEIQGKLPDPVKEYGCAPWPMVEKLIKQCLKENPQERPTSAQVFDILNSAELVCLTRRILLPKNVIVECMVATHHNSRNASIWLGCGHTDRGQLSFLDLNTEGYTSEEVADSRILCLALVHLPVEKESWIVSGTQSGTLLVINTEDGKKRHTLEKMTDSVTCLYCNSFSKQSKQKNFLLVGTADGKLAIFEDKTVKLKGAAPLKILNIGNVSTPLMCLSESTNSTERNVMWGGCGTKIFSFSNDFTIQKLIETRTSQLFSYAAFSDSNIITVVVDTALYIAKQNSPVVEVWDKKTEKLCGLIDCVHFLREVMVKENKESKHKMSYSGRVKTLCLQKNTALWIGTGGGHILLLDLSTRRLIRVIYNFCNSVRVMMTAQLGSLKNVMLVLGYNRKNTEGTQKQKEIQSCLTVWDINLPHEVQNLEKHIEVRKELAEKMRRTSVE

| SMILES | IC50 [1] | CLH (Liver) | AUC/dose (Mus musculus [4]) | Papp [5] | fraction unbound [6] | half-life [7] | Vd [9] | bioavailability [10] | solubility [12] | also measured |
| --- | --- | --- | --- | --- | --- | --- | --- | --- | --- | --- |
| O=C(Nc1cccnc1)c1cc(Br)ccc1OCc1cccc(F)c1 | 15.8 nM | – | – | – | – | – | – | – | – | – |
| O=C(Nc1cccnc1)c1cc(-c2ccnc(F)c2)ccc1OCc1ccccc1 | 10 nM | 1.2 mL/min/g | 520 ng·h/mL/mg/kg | > 10 ×10⁻⁶ cm/s | 0.003 | – | – | – | – | half-life [2]: 66 min; Vdss (Mus musculus [3]): 2.3 L/kg |
| O=C(Nc1cccnc1)c1cc(C(F)(F)F)ccc1OCc1ccc(F)cc1 | – | 0.8 mL/min/g | 597 ng·h/mL/mg/kg | > 10 ×10⁻⁶ cm/s | 0.004 | 72 min | 2.7 L/kg | 91.6% | 11 µM (≈ 4.29 µg/mL) | clearance [8]: 27.7 mL/min/kg; Kp [11]: 1.3; inhibition [13]: > 40%; inhibition (SRSF protein kinase 3 [14]): > 40%; IC50 (SRSF protein kinase 3 [15]): 158 nM |
| O=C(Nc1cccnc1)c1cc(Br)ccc1OCc1ccccc1F | 7.94 nM | – | – | – | – | – | – | – | – | – |
| Cn1cc(-c2ccc(OCc3ccc(F)cc3)c(C(=O)Nc3cccnc3)c2)cn1 | – | – | 253 ng·h/mL/mg/kg | > 10 ×10⁻⁶ cm/s | – | 24 min | 1.6 L/kg | 10% | – | – |
| O=C(Nc1cccnc1)c1cc(Br)ccc1OCc1ccccc1 | 12.6 nM | 2.8 mL/min/g | – | – | – | – | – | – | < 1 µM | – |

From ChEMBL document CHEMBL4052807 (Bioorg Med Chem Lett, 2017)
